Results as given in patent US5151432A, “Substituted amino acid compounds” (Adir et Compagnie, priority 1989, dated 1992).

Columns and labels:
[1] = molecular target: angiotensin I converting enzyme (Homo sapiens, UniProt P12821); experiment: Inhibitory effects on angiotensin I converting enzyme in vitro (conversion of hippurylhistidylleucine to hippuric acid, RYAN method); format: biochemical; details: substrate HHL
Description: The activity of the converting enzyme is determined in vitro according to the method of RYAN J. W. et al. (Biochem. J., 1977, 167, 501-504), which utilizes the reaction of conversion of hippurylhistidylleucine (HHL) to hippuric acid. The latter is assayed by liquid scintillation after extraction with ethyl acetate. The inhibitory effect of a compound is determined by incubation at different doses in the presence of the substrate and the converting enzyme. The results are expressed as the IC50 of these compounds.

[2] = tested on: amnesic scopolamine-treated animals (scopolamine-induced amnesia); experiment: Promnesic effects: one trial-passive avoidance test in rats with scopolamine-induced amnesia; format: in vivo, Male OFA rats (Iffa-Credo); details: for % Retention at 300 sec. / Latency of transit: 24 h retention
Text: Male OFA rats (Iffa-Credo) weighting 210-240 g are placed in individual cages under standard environmental conditions. The memory test is a test of one trial-passive avoidance in which experimental amnesia is induced by prior injection of scopolamine.
The apparatus consists of a two-compartment enclosure separated by an automatically closing door.
On the day of conditioning, each animal is placed during 60 seconds in the aversive compartment (white, brightly lit).
Then the door is rapidly open and the rat can freely enter the compartment where it feels secure (black and dark). Transit thereto triggers closing of the door, followed by application to the animal of an unescapable electric shock via the floor of the dark compartment (0.6 mA; 3 seconds).
Memory retention is measured 24 hours later under the same conditions. For this purpose, the latency of transit to the black compartment is measured and the maximum observation time is set at 300 seconds.
The memory enhancing effect of the compounds under investigation is measured in animals receiving scopolamine. These compounds are administered I.P. twice daily during the 3 days preceding the memory test, and then 1 hour before the conditioning test (i.e. 30 minutes before the scopolamine).
The promnesic effects of the compounds increase the transit time relative to the amnesic animals.
The compounds of the present invention are compared to oxiracetam, the nootropic agent most recently proposed in the therapy of memory disorders.

Sequence of angiotensin I converting enzyme (P12821 30-1306): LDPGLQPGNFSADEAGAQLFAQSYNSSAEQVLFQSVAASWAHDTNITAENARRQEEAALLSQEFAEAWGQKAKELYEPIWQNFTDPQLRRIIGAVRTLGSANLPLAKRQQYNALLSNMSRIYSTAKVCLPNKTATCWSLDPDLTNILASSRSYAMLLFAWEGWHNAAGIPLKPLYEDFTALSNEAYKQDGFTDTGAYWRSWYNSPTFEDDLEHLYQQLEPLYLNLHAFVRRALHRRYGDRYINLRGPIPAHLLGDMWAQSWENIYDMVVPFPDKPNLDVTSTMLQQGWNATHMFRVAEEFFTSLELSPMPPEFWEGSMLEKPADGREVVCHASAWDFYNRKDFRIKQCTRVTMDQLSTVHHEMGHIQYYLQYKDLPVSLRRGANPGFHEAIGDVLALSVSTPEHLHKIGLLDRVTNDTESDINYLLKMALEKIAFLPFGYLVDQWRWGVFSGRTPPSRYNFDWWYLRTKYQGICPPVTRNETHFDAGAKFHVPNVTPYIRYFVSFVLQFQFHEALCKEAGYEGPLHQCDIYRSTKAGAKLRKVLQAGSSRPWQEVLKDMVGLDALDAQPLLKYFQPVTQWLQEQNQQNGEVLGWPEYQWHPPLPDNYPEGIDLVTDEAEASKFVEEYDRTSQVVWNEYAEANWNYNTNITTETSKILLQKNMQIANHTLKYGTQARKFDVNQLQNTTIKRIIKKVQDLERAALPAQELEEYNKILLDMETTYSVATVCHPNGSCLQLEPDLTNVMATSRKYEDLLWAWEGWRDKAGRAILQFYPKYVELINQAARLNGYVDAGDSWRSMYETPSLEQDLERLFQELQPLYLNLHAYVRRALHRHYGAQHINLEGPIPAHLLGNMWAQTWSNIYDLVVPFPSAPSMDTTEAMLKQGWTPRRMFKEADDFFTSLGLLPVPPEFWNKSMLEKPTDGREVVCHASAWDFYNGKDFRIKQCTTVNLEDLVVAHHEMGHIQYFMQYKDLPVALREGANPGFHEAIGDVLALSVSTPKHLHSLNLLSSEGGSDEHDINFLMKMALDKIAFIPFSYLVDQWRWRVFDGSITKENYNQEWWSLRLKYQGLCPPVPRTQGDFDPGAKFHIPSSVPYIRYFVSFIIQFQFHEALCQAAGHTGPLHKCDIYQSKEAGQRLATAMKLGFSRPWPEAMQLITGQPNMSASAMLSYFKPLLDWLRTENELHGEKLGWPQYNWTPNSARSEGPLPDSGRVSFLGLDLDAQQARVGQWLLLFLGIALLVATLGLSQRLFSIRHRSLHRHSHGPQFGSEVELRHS

IC50 [1] [nM] | SMILES | % Retention at 300 sec. ([2]; 0.003 mg/kg I.P.) [%] | Latency of transit ([2]; 0.003 mg/kg I.P.) [s] | % Retention at 300 sec. ([2]; 0.01 mg/kg I.P.) [%] | Latency of transit ([2]; 0.01 mg/kg I.P.) [s] | % Retention at 300 sec. ([2]; 0.03 mg/kg I.P.) [%] | Latency of transit ([2]; 0.03 mg/kg I.P.) [s] | % Retention at 300 sec. ([2]; 0.1 mg/kg I.P.) [%] | Latency of transit ([2]; 0.1 mg/kg I.P.) [s] | % Retention at 300 sec. ([2]; 0.3 mg/kg I.P.) [%] | Latency of transit ([2]; 0.3 mg/kg I.P.) [s] | % Retention at 300 sec. ([2]; 1 mg/kg I.P.) [%] | Latency of transit ([2]; 1 mg/kg I.P.) [s] | % Retention at 300 sec. ([2]; 3 mg/kg I.P.) [%] | Latency of transit ([2]; 3 mg/kg I.P.) [s] | also measured
50 | CCC[C@H](N[C@@H](C)C(=O)N1C2CCC(CC2)[C@H]1C(N)=O)C(=O)O [Example 2, (3S)-2-{(S)-2-[(S)-1-CARBOXYBUTYLAMINO]-PROPIONYL}-3-CARBAMOYL-2-AZABICYCLO-[2.2.2]OCTANE] |  |  |  |  |  |  |  |  |  |  |  |  |  |  | 
 | CCC[C@H](N[C@@H](C)C(=O)N1C2CCC(CC2)[C@H]1C(N)=O)C(N)=O [Example 3, (3S)-2-{(S)-2-[(S)-1-CARBAMOYLBUTYL-AMINO]PROPIONYL}-3-CARBAMOYL-2-AZABICYCLO[2.2.2]OCTANE] | 5 | 108.2 | 10 | 119.3 | 35 | 166.4 | 45 | 171.6 | 40 | 182.6 | 20 | 125.2 | 10 | 121.3 | 
 | CCCCCCCCOC(=O)[C@@H]1C2CCC(CC2)N1C(=O)[C@H](C)N[C@@H](CCC)C(N)=O [Example 4, (3S)-2-{(S)-2-[(S)-1-CARBAMOYLBUTYLAMINO]PROPIONYL}-2-AZABICYCLO[2.2.2]-OCTANE-3-CARBOXYLIC ACID n-OCTYL ESTER] | 10 | 115.6 | 30 | 149.3 | 50 | 205.1 | 55 | 207.2 | 40 | 202.1 | 40 | 171.5 | 5 | 106.7 | 
18 | NCCCC[C@H](N[C@@H](CCc1ccccc1)C(=O)O)C(=O)N1C2CCC(CC2)[C@H]1C(N)=O [Example 8, (3S)-2-{(S)-2-[(S)-1-CARBOXY-3-PHENYLPROPYLAMINO]-6-AMINOHEXANOYL}-3-CARBAMOYL-2-AZABICYCLO[2.2.2]OCTANE] |  |  |  |  |  |  |  |  |  |  |  |  |  |  | 
 | NC(=O)CN1CC(O)CC1=O (stereo not drawn) [OXIRACETAM, oxiracetam, reference compound] |  |  |  |  |  |  |  |  |  |  | 10 | 97.4 | 10 | 126.5 | % Retention at 300 sec. ([2]; 10 mg/kg I.P.): 5%; Latency of transit ([2]; 10 mg/kg I.P.): 115.3 s; % Retention at 300 sec. ([2]; 30 mg/kg I.P.): 30%; Latency of transit ([2]; 30 mg/kg I.P.): 150.1 s; % Retention at 300 sec. ([2]; 100 mg/kg I.P.): 40%; Latency of transit ([2]; 100 mg/kg I.P.): 182.5 s; % Retention at 300 sec. ([2]; 300 mg/kg I.P.): 45%; Latency of transit ([2]; 300 mg/kg I.P.): 200.2 s; % Retention at 300 sec. ([2]; 1000 mg/kg I.P.): 30%; Latency of transit ([2]; 1000 mg/kg I.P.): 175.8 s; minimal effective dose ([2]; Rattus norvegicus, ip, I.P., minimal active dose, read-out: dose with protective effect (scopolamine-induced amnesia)): ≥ 30 mg/kg
